Assay type in all cases: cell-based
One assay concerns HEK-293T cells. Briefly: alamarBlue cytotoxicity assay, HEK-293T. To be noted: Homo sapiens, read-out: HEK-293T (IC50). The method, then: (§1) RWPE-1 cells (ATCC: CRL-36O7) were cultured in keratinocyte serum-free media (K-SFM) supplemented with 0.05 mg/mL bovine pituitary extract and 5 ng/mL epidermal growth factor, and 1% penicillin (100 U/mL; Thermo Fisher Scientific, Waltham, MA, USA), and streptomycin (100 μg/mL; GIBCO). […] Passage numbers remained below 30 as per standard procedures. All cell lines were validated and characterized before use to ensure their authenticity and reliability. Routine mycoplasma testing was conducted to confirm that the cells were free from contamination. Additionally, key functional and morphological characteristics were assessed to verify their alignment with previously reported profiles.
(§2) The alamarBlue® assay (Thermo Fisher Scientific, Waltham, MA USA) was conducted as previously described. RWPE-1 cells, HEK-293 cells, and NCI-H295R cells were plated in 96-well plates at 10,000 cells per well and incubated overnight at 37 °C with 5% CO2. […] Cells were incubated for an additional 24 h. Cell viability was measured using the alamarBlue® assay. Post-incubation, 0.05 mg/mL alamarBlue® solution in phosphate-buffered saline (PBS) was added to each well. The plates were incubated in the dark at 37 °C with 5% CO2 for 4 h, and fluorescence was measured at an excitation wavelength of 540 nm and an emission wavelength of 590 nm. Cell viability was calculated relative to the control sample treated with DMSO. All experiments were conducted in triplicate.

A further assay relates to NCI-H295R cells. Briefly: alamarBlue cytotoxicity assay, NCI-H295R. Particulars: Homo sapiens, read-out: NCI-H295R (IC50). As to the method:
as §1, §2
For orientation: The colour change of resazurin is a common sign of viable cells or microbes.

Another assay concerns the target T1, CYP21A2 (Homo sapiens, UniProt P08686).
T1 construct: expressed in transfected cells; host or cells: HEK293 / HEK-293T
T1 sequence (P08686 1-495): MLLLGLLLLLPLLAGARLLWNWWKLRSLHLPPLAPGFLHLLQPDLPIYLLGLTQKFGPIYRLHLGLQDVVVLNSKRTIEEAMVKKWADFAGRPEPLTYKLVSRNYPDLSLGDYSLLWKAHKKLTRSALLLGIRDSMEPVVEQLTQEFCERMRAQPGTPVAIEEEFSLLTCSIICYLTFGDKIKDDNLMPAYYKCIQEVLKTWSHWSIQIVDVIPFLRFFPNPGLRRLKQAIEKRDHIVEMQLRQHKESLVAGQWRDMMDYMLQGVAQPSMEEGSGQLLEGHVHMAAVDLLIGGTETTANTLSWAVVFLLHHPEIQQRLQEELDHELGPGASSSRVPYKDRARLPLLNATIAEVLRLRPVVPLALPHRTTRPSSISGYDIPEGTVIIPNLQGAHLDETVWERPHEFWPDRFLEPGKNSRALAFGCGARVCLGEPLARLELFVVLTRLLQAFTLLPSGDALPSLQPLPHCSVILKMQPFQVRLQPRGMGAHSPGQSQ
The assay is described as follows: CYP21A2 activity assay in transiently transfected HEK-293T cells. To be noted: for inhibition at 10 µM: read-out: % Inhibition CYP21A2. The method, then: Transient transfections were performed using the CYP21A2 WT vector as described previously. HEK293 cells were seeded in six-well plates (3 × 10^5 cells/well). After 24 h, the growth medium was replaced, and cells were transfected using Lipofectamine 2000 (Thermo Fisher Scientific, Bedford, MA, USA) with 12.5 µg of plasmid (plasmid concentration: 1068 µg/mL). Twenty-four hours after transfection, transfected cells were replated in 24-well plates (1.5 × 10^5 cells/well) to ensure homogeneity of the cell population across the wells. Six hours after transfection, 2 mL of fresh medium was replaced, and the cells were cultured for 48 h. Cell growth was examined. […] DMSO was added to the negative control, and 10 µM abiraterone was added to the positive control, and the cells were incubated for 4 h. Functional assays were initiated by adding 1 µM unlabeled progesterone (using 10,000 cpm of [^14C]-progesterone as a tracer). After incubation at 37 °C for 1 h, the culture medium and cells were harvested. Steroids were extracted from the culture medium with ethyl acetate and isooctane (1:1 volume ratio), dried, and dissolved in dichloromethane. Steroids were separated by thin-layer chromatography (TLC), placed on a phosphor screen, and visualized using a Typhoon PhosphorImager FLA-7000 (GE Healthcare Bio-Sciences AB, Uppsala, Sweden). Image intensity was measured and quantified using ImageQuant TL v8 (Cytiva, Marlborough, MA, USA). The CYP21A2 enzyme activity was expressed as relative steroid conversion. Steroids were quantified as a percentage of radioactivity incorporated into […] to the total radioactivity measured in the whole sample and compared between the WT and variants. Cells were collected with trypsin and washed with 1× PBS to quantify the amount of protein. Results were analyzed from three technical replicates. To ensure a similar amount of CYP21A2 in each reaction, a Western blot analysis was performed to normalize the enzyme activity with the relative CYP21A2 expression.

Where [1] appears, read: cytotoxicity, alamarBlue, 24 h incubation, mean ± SD, three experiments.
[2] abbreviates: 10 µM (SM extract 10 µg/mL), transfected HEK-293T cells, calculated as 100% − % residual activity.

Read-outs that look alike come from different tables or passages of the source.

As a reminder, the IC50 is the point on the concentration scale where inhibition reaches its midpoint. One may read the inhibition as the drop in the measured response relative to a control, in per cent. For the compound `Cc1cccc2c3c(ccc12)C1=C(C(=O)C3=O)[C@@H](C)CO1` [DT, dihydrotanshinone I], the IC50 in the assay with HEK-293T cells (24 h) amounted to 1310 ± 470 nM; with NCI-H295R cells (24 h) it was 950 ± 480 nM. Moreover, the “Residual CYP21A2 activity” value on CYP21A2 (% of DMSO control, 10 µM, transfected HEK-293T cells) is reported as 85%. In addition, at CYP21A2 (HEK-293T), the inhibition at 10 µM turned out to be 14.9%.
Regarding `Cc1coc2c1C(=O)C(=O)c1c-2ccc2c(C)cccc12` [TAI, tanshinone I], the figures for the IC50 in the assay with HEK-293T cells (setting [1]) and with NCI-H295R cells (setting [1]) were 1080 ± 260 nM and 1130 ± 630 nM, respectively. Besides, the “% Inhibition CYP21A2” value on CYP21A2 (setting [2]) is reported as “no meaningful inhibition”. In addition, on CYP21A2 (setting [2]), the inhibition at 10 µM was under 1%.
Taken in the same sequence, the figures for `Cc1coc2c1C(=O)C(=O)c1c-2ccc2c1CCCC2(C)C` [TAII, tanshinone IIA] were 2260 ± 1920 nM, 1200 ± 3440 nM, “no meaningful inhibition” and under 1%.

Values taken from publication PMC12838644, “Dihydrotanshinone as a Natural Product-Based CYP17A1 Lyase Inhibitor for Hyperandrogenic Disorders” (Biomolecules, 2026).
